Assay results from US20230220331A1, “TEMPORARY TREATMENT MEDIUM, TREATMENT KIT, EMBRYOGENESIS ARREST INHIBITOR, EMBRYOGENESIS ARREST INHIBITORY METHOD, DEVELOPMENTAL ENGINEERING PRODUCT PREPARATION METHOD, TRANSPLANTATION METHOD, THERAPEUTIC METHOD, AND DEVELOPMENTAL ENGINEERING PRODUCT” (priority 2020, published 2023).

Test system: Wistar-Imamichi and WKY rat embryos
Assay: Klotho (40 kbp) large deletion knockout rats by electroporation (Treatment Example 13)
Assay type: cell-based
Details: for large deletion (proportion of individuals) / large deletion (%): Klotho
Method: In the Wistar-Imamichi line, which are similar to the inbred line, and the inbred WKY line, when the Klotho gene (40 kbp), of which whole gene could not normally be deleted, were knocked out by electroporation, the temporarily treatment is processed as similar to Example 1 as described above. Specifically, before and after electroporation, 1 hour of temporary treatment, 24 hours of culture in the normal medium (waiting period), and 1 hour of temporary treatment were performed.

[1] = Wistar-Imamichi, HIGH CONCENTRATION
[2] = Wistar-Imamichi, 164 transferred embryos
[3] = Wistar-Imamichi, LOW CONCENTRATION

SMILES: C[C@@H](N)[C@H]1CC[C@H](C(=O)Nc2ccncc2)CC1 [Y-27632, trans-4-[(1R)-1-Aminoethyl]-N-4-pyrid inylcyclohexanecarboxamide]
- large deletion (proportion of individuals) (WKY, high concentration, many pulses, 15 transferred embryos): 2/3
- large deletion (%) (WKY, high concentration, many pulses, listed as +Y): (66%)
- large deletion (%) (WKY, high concentration, many pulses, listed as Y): 66.6%
- KLOTHO LARGE DELETION HETERO % [1]: 41.3%
- KLOTHO LARGE DELETION HOMO % [1]: 23.2%
- NUMBER OF INDIVIDUALS, KLOTHO LARGE DELETION HETERO [1]: 19/46
- NUMBER OF INDIVIDUALS, KLOTHO LARGE DELETION HOMO [1]: 10/46
- large deletion (%) [2]: (63%)
- large deletion (proportion of individuals) [2]: 29/46
- KLOTHO LARGE DELETION HETERO % [3]: 16.6%
- KLOTHO LARGE DELETION HOMO % [3]: 0%
- NUMBER OF INDIVIDUALS, KLOTHO LARGE DELETION HETERO [3]: 3/18
- NUMBER OF INDIVIDUALS, KLOTHO LARGE DELETION HOMO [3]: 0/18
